Source: PubChem BioAssay AID248 (DTP/NCI, 2004)
Where “and” joins values, the source holds several entries; their conditions need not be identical. Equal entries are not always repeated. Toxic doses and inconclusive results are not listed. No stated cut-off is given here; in the data, active means T/C of 150% or more; inactive means T/C below 125%.

Test system: L1210 leukemia ip in BDF1 mice, survival T/C
Test: NCI In Vivo Anticancer Drug Screen. Data for tumor model L1210 Leukemia (intraperitoneal) in B6D2F1 (BDF1) mice
Conditions: endpoint: mean survival time, higher = longer survival
In short: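 Value reflects the ratio of survival in compound-treated mice to survival in vehicle-treated controls, with both groups carrying the same transplanted tumor.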

[1] = dose: 50.0 mg/kg/injection, schedule: Q01DX009 (ip), vehicle: saline with Tween-80
[2] = dose: 100.0 mg/kg/injection, schedule: Q01DX009 (ip), vehicle: saline with Tween-80
[3] = dose: 100.0 mg/kg/injection, schedule: Q04DX003 (ip), vehicle: saline with Tween-80
[4] = dose: 75.0 mg/kg/injection, schedule: Q01DX001 (ip), vehicle: other
[5] = dose: 150.0 mg/kg/injection, schedule: Q01DX001 (ip), vehicle: other
[6] = dose: 100.0 mg/kg/injection, schedule: Q04DX003 (ip), vehicle: saline
[7] = dose: 200.0 mg/kg/injection, schedule: Q04DX003 (ip), vehicle: saline
[8] = dose: 15.0 mg/kg/injection, schedule: Q01DX Z (ip), vehicle: saline
[9] = dose: 30.0 mg/kg/injection, schedule: Q01DX Z (ip), vehicle: saline
[10] = dose: 60.0 mg/kg/injection, schedule: Q01DX Z (ip), vehicle: saline
[11] = dose: 100.0 mg/kg/injection, schedule: Q04DX002 (ip), vehicle: Klucel (hydroxypropylcellulose) (HPC)
[12] = dose: 200.0 mg/kg/injection, schedule: Q04DX002 (ip), vehicle: Klucel (hydroxypropylcellulose) (HPC)
[13] = dose: 400.0 mg/kg/injection, schedule: Q04DX002 (ip), vehicle: Klucel (hydroxypropylcellulose) (HPC)
[14] = dose: 50.0 mg/kg/injection, schedule: Q01DX001 (ip), vehicle: saline
[15] = dose: 100.0 mg/kg/injection, schedule: Q01DX001 (ip), vehicle: saline
[16] = dose: 200.0 mg/kg/injection, schedule: Q01DX001 (ip), vehicle: saline
[17] = dose: 400.0 mg/kg/injection, schedule: Q01DX001 (ip), vehicle: saline
[18] = dose: 100.0 mg/kg/injection, schedule: Q01DX001 (ip), vehicle: carboxymethylcellulose (CMC)
[19] = dose: 200.0 mg/kg/injection, schedule: Q01DX001 (ip), vehicle: carboxymethylcellulose (CMC)
[20] = dose: 400.0 mg/kg/injection, schedule: Q01DX001 (ip), vehicle: carboxymethylcellulose (CMC)
[21] = dose: 200.0 mg/kg/injection, schedule: Q01DX009 (ip), vehicle: saline with Tween-80
[22] = dose: 400.0 mg/kg/injection, schedule: Q01DX009 (ip), vehicle: saline with Tween-80
[23] = dose: 100.0 mg/kg/injection, schedule: Q04DX003 (ip), vehicle: Klucel (hydroxypropylcellulose) (HPC)
[24] = dose: 200.0 mg/kg/injection, schedule: Q01DX009 (ip), vehicle: Klucel (hydroxypropylcellulose) (HPC)
[25] = dose: 200.0 mg/kg/injection, schedule: Q04DX003 (ip), vehicle: Klucel (hydroxypropylcellulose) (HPC)
[26] = dose: 400.0 mg/kg/injection, schedule: Q04DX003 (ip), vehicle: Klucel (hydroxypropylcellulose) (HPC)

Measured: T/C

O=C(O)C1CCC=CCC1
inactive: dose: 50.0 mg/kg/injection, schedule: Q01DX009 (ip), vehicle: other 91 % of control | dose: 100.0 mg/kg/injection, schedule: Q01DX009 (ip), vehicle: other 96 % of control | dose: 200.0 mg/kg/injection, schedule: Q01DX009 (ip), vehicle: other 98 % of control

O=C(CCl)Oc1ccccc1
inactive: [1] 94 % of control | [2] 87 % of control | [3] 101 % of control | dose: 200.0 mg/kg/injection, schedule: Q04DX003 (ip), vehicle: saline with Tween-80 96 % of control

NCCSc1ccc(Br)cc1
inactive: [4] 100 % of control | [5] 102 % of control

COc1ccc2c(c1)CCC1C2=CC(=O)/C1=C\[O-].COc1ccc2c(c1)CCC1C2=CC(=O)/C1=C\[O-].[Cu+2] (configuration not stated)
inactive: [1] 97 % of control | [2] 104 % of control | [6] 92 % of control | [7] 94 % of control

Cc1ccc(/C(=N\N=C(N)N)c2ccccc2)cc1
inactive: [8] 108 % of control | [9] 110 % of control | dose: 30.0 mg/kg/injection, schedule: Q01DX Z (oral), vehicle: other 105 % of control | [10] 109 % of control | dose: 60.0 mg/kg/injection, schedule: Q01DX Z (oral), vehicle: other 95 % of control

Clc1ccc2nnnn2n1
inactive: dose: 12.5 mg/kg/injection, schedule: Q01DX009 (ip), vehicle: saline with Tween-80 97 % of control | dose: 25.0 mg/kg/injection, schedule: Q01DX009 (ip), vehicle: saline with Tween-80 100 % of control | [1] 110 % of control | dose: 62.5 mg/kg/injection, schedule: Q04DX003 (ip), vehicle: saline 109 % of control | [11] 115 % of control | dose: 125.0 mg/kg/injection, schedule: Q04DX003 (ip), vehicle: saline 109 % of control | [12] 115 % of control | [13] 112 % of control

O=C(OC1COC(OCc2ccccc2)C(OC(=O)c2ccccc2)C1OC(=O)c1ccccc1)c1ccccc1 (configuration not stated)
inactive: dose: 25.0 mg/kg/injection, schedule: Q04DX003 (ip), vehicle: saline with Tween-80 94 % of control | [3] 93 % of control and 87 % of control

CCNC(=O)OC1C=CS(=O)(=O)C1 (configuration not stated)
inactive: dose: 100.0 mg/kg/injection, schedule: Q04DX002 (ip), vehicle: saline 106 % of control | dose: 200.0 mg/kg/injection, schedule: Q04DX002 (ip), vehicle: saline 92 % of control | dose: 400.0 mg/kg/injection, schedule: Q04DX002 (ip), vehicle: saline 106 % of control

CC12CCC(C)(O)C(CC3=C1CCc1ccccc13)C2=O (configuration not stated)
inactive: [6] 107 % of control | [7] 104 % of control | dose: 400.0 mg/kg/injection, schedule: Q04DX003 (ip), vehicle: saline 106 % of control

COC(=O)C1=CO[C@H](C)[C@@H]2CN3CCc4c([nH]c5ccccc45)[C@@H]3C[C@H]12
inactive: dose: 17.5 mg/kg/injection, schedule: Q01DX Z (ip), vehicle: carboxymethylcellulose (CMC) 98 % of control

Brc1ccc(N=N/C(=N/Nc2ccccc2)c2ccc(/C=N/Nc3ccccc3)cc2)cc1
inactive: [14] 95 % of control | [15] 101 % of control | [16] 95 % of control | [17] 91 % of control

CCOC(=O)c1c(-c2ccc([N+](=O)[O-])cc2)cn(-c2ccc(OC)cc2)c1C
inactive: [11] 91 % of control | [12] 87 % of control | [13] 94 % of control

O=S(=O)(Nc1ccccc1)c1ccccc1C(O)(c1ccccc1)c1ccccc1
inactive: [18] 106 % of control | [19] 90 % of control | [20] 93 % of control

Cc1ccc(S(=O)(=O)N/N=C/c2ccc(Cl)s2)cc1
inactive: [2] 95 % of control | [21] 97 % of control | [22] 92 % of control

NC(N)=N/N=C/c1cc([N+](=O)[O-])ccc1O
inactive: [8] 120 % of control | [9] 98 % of control | [10] 98 % of control | dose: 60.0 mg/kg/injection, schedule: Q01DX Z (oral), vehicle: saline 100 % of control | dose: 120.0 mg/kg/injection, schedule: Q01DX Z (ip), vehicle: saline 96 % of control | dose: 120.0 mg/kg/injection, schedule: Q01DX Z (oral), vehicle: saline 96 % of control

CCOC(=O)CCC(=O)NNc1ccccc1
inactive: dose: 50.0 mg/kg/injection, schedule: Q01DX001 (ip), vehicle: carboxymethylcellulose (CMC) 106 % of control | [18] 100 % of control | [19] 102 % of control | [20] 106 % of control

Clc1cnc[nH]1
inactive: dose: 25.0 mg/kg/injection, schedule: Q01DX009 (ip), vehicle: saline 105 % of control | dose: 50.0 mg/kg/injection, schedule: Q01DX009 (ip), vehicle: saline 108 % of control | [15] 102 % of control | dose: 100.0 mg/kg/injection, schedule: Q01DX009 (ip), vehicle: saline 105 % of control | [16] 110 % of control | [17] 102 % of control

Cc1ncc(C#N)n1Cc1ccccc1
inactive: dose: 100.0 mg/kg/injection, schedule: Q01DX009 (ip), vehicle: Klucel (hydroxypropylcellulose) (HPC) 98 % of control and 101 % of control | [11] 101 % of control and 113 % of control | [23] 109 % of control | [24] 101 % of control and 103 % of control | [12] 103 % of control and 108 % of control | [25] 104 % of control | dose: 400.0 mg/kg/injection, schedule: Q01DX009 (ip), vehicle: Klucel (hydroxypropylcellulose) (HPC) 101 % of control | [13] 103 % of control and 109 % of control | [26] 111 % of control

Cc1cc(C)c(C(=O)OC(C)CNC2CCCCC2)c(C)c1 (configuration not stated)
inactive: dose: 75.0 mg/kg/injection, schedule: Q01DX001 (ip), vehicle: carboxymethylcellulose (CMC) 96 % of control | dose: 150.0 mg/kg/injection, schedule: Q01DX001 (ip), vehicle: carboxymethylcellulose (CMC) 102 % of control

S=C(c1ccccc1)N1CCOCC1
inactive: [11] 100 % of control | [12] 111 % of control | [13] 96 % of control

CCN(CC)CCSC(=O)C(O)(c1ccc(C)cc1)c1ccc(C)cc1
inactive: [4] 90 % of control | [5] 96 % of control

COC(OC)c1cccc([N+](=O)[O-])c1
inactive: [14] 111 % of control | [15] 107 % of control | [16] 102 % of control | [17] 100 % of control

CCCCCC(Oc1ccc(Cl)cc1Cl)C(=O)O (configuration not stated)
inactive: [11] 100 % of control | [12] 97 % of control

Nc1nc(N)c2nc(CNc3ccc(S(=O)(=O)NC(CCC(=O)O)C(=O)O)cc3)cnc2n1 (configuration not stated)
inactive: dose: 20.0 mg/kg/injection, schedule: Q01DX009 (ip), vehicle: Klucel (hydroxypropylcellulose) (HPC) 114 % of control | dose: 40.0 mg/kg/injection, schedule: Q01DX009 (ip), vehicle: Klucel (hydroxypropylcellulose) (HPC) 119 % of control | dose: 80.0 mg/kg/injection, schedule: Q01DX009 (ip), vehicle: Klucel (hydroxypropylcellulose) (HPC) 124 % of control | [24] 120 % of control

COC(=O)c1nc(N)n[nH]1
inactive: dose: 100.0 mg/kg/injection, schedule: Q01DX001 (ip), vehicle: other 110 % of control | [2] 106 % of control | dose: 100.0 mg/kg/injection, schedule: Q04DX003 (ip), vehicle: other 102 % of control | dose: 200.0 mg/kg/injection, schedule: Q01DX001 (ip), vehicle: other 95 % of control | [21] 94 % of control | dose: 200.0 mg/kg/injection, schedule: Q04DX003 (ip), vehicle: other 105 % of control | dose: 400.0 mg/kg/injection, schedule: Q01DX001 (ip), vehicle: other 97 % of control | [22] 95 % of control | dose: 400.0 mg/kg/injection, schedule: Q04DX003 (ip), vehicle: other 102 % of control

CCC(C)C(NC(=O)C(CC(C)C)N(C)C)C(=O)N1CCC2Oc3ccc(cc3)/C=C\NC(=O)C(Cc3ccccc3)NC(=O)C21 (configuration not stated)
inactive: [23] 96 % of control | [25] 108 % of control | [26] 94 % of control
